Literature values as cited in patent US20240315972A1, “PROTEIN CONTAINING BIO-ACTIVE COMPOSITIONS COMPRISING CELLULOSE MICROPARTICLE CARRIERS” (priority 2021, published 2024).

Tests used:
large native proteins = settings: versus its mesophilic analogue
[1] = system: herpes simplex virus type 1 (HSV-1); settings: in vitro
[2] = system: respiratory syncytial virus (RSV); settings: in vitro
[3] = system: interferon (IFN) signaling; settings: 5 BAEE U/mL (4.5 μg/mL porcine trypsin)

## Trypsin
Large native proteins
  Effectiveness in degrading large native proteins relative to mesophilic analogue: 3-12 times
[1]
  Efficacy against HSV-1: high efficacy
[2]
  Efficacy against RSV: high efficacy
[3]
  Effect on interferon (IFN) signaling: strongly inhibited
